# In patent US8258149B2, “Isoquinoline derivatives” (Hoffmann-La Roche Inc., priority 2009, dated 2012):
# System: L6 myotubes
# Test: Glucose uptake (2-deoxy-D-[3H]glucose) in L6 myotubes, effectiveness in muscular glucose utilization
# Assay type: cell-based
# Conditions: Rattus norvegicus, L6 myotubes treated with compound 2 hours
# Experimental: L6 myoblasts were cultured in DMEM supplemented with 10% FBS. Confluent cells were differentiated to myotubes by culturing with DMEM supplemented with 2% FBS for 6 days. L6 myotubes were treated with compounds for 2 hours. Glucose uptake was performed in 16 h serum-starved cells. Cells were washed with PBS and incubated in Krebs-Ringer phosphate-HEPES buffer containing 0.1% BSA with or without 100 nmol/l insulin. Then, cells were incubated with 0.05 mmol/l 2-deoxy-D-glucose and 0.5 μCi 2-deoxy-D-[1,2-^3H]glucose for 10 min. The assay was terminated by washing the cells three times with ice-cold PBS. Cells were solubilised with 0.1% triton X-100 and radioactivity was determined by liquid scintillation counting. Total cellular protein concentration was measured by the Bradford method. Glucose uptake was performed in duplicate. The compounds were tested at concentrations of 1 uM and 3 uM. In this test, the compounds of formula (I) induce a glucose uptake activity between 1 and 2 fold the glucose uptake activity of the vehicle. Some particularly preferred compounds of formula (I) induce a glucose uptake activity between 1.2 and 2 fold the glucose uptake of the vehicle. Other particularly preferred compounds of formula (I) induce a glucose uptake activity between 1.4 and 2 fold the glucose uptake activity of the vehicle.
SMILES,fold induction at 1 µM,fold induction at 3 µM
"CCC1(CC)c2c(ccc(OC)c2OC)C(C)=C2c3cc4c(cc3CCN21)OCO4 [Example 15, 8,8-Diethyl-9,10-dimethoxy-13-methyl-5,8-dihydro-6H-[1,3]dioxolo[4,5-g]isoquino[3,2-a]isoquinoline]",1.22,1.14
"COc1ccc2c(c1OC)C1(CC=CC1)N1CCc3cc4c(cc3C1C2)OCO4 (centres unmarked) [Example 26, 9′,10′-Dimethoxy-5′,6′,13′,13a′-tetrahydrospiro[cyclopent-3-ene-1,8′-[1,3]dioxolo[4,5-g]isoquino[3,2-a]isoquinoline]]",1.12,1.11
"CCC1(CC)c2c(ccc(OC)c2OC)C=C2c3cc4c(cc3CCN21)OCO4 [Example 28, 8,8-Diethyl 9,10-dimethoxy-5,8-dihydro-6H-[1,3]dioxolo[4,5-g]isoquino[3,2-a]isoquinoline]",1.47,1.12
"CCC1=C2c3cc4c(cc3CCN2C(C)(C)c2c1ccc(OC)c2OC)OCO4 [Example 16, 13-Ethyl-9,10-dimethoxy-8,8-dimethyl-5,8-dihydro-6H-[1,3]dioxolo[4,5-g]isoquino[3,2-a]isoquinoline]",1.25,0.91
"C=CCC1c2c(ccc(OC)c2OC)C=C2c3cc4c(cc3CCN21)OCO4 (centres unmarked) [Example 6, 8-Allyl-9,10-dimethoxy-5,8-dihydro-6H-[1,3]dioxolo[4,5-g]isoquino[3,2-a]isoquinoline]",–,1.07
"COc1ccc2c(c1OC)C(C)(C)N1CCc3cc4c(cc3C1=C2Cc1ccccc1)OCO4 [Example 18, 13-Benzyl-9,10-dimethoxy-8,8-dimethyl-5,8-dihydro-6H-[1,3]dioxolo[4,5-g]isoquino[3,2-a]isoquinoline]",1.19,1.05
"COc1cc(Cl)c2c(c1OC)C(C)(C)N1CCc3cc4c(cc3C1=C2)OCO4 [Example 19, 12-Chloro-9,10-dimethoxy-8,8-dimethyl-5,8-dihydro-6H-[1,3]dioxolo[4,5-g]isoquino[3,2-a]isoquinoline]",1.25,1.24
"CC#CC1c2c(ccc(OC)c2OC)C(C)=C2c3cc4c(cc3CCN21)OCO4 (centres unmarked) [Example 9, 9,10-Dimethoxy-13-methyl-8-prop-1-ynyl-5,8-dihydro-6H-[1,3]dioxolo[4,5-g]isoquino[3,2-a]isoquinoline]",1.63,0.99
"C=CCC1c2c(ccc(OC)c2OC)C(CC)=C2c3cc4c(cc3CCN21)OCO4 (centres unmarked) [Example 11, 8-Allyl-13-ethyl-9,10-dimethoxy-5,8-dihydro-6H-[1,3]dioxolo[4,5-g]isoquino[3,2-a]isoquinoline]",1.15,–
"COc1ccc2c(c1OC)C1(CCCC1)N1CCc3cc4c(cc3C1=C2)OCO4 [Example 20, 9′,10′-Dimethoxy-5′,6′-dihydrospiro[cyclopentane-1,8′-[1,3]dioxolo[4,5-g]isoquino[3,2-a]isoquinoline]]",1.2,1.18
"C#CC1c2c(ccc(OC)c2OC)C=C2c3cc4c(cc3CCN21)OCO4 (centres unmarked) [Example 5, 8-Ethynyl-9,10-dimethoxy-5,8-dihydro-6H-[1,3]dioxolo[4,5-g]isoquino[3,2-a]isoquinoline]",–,1.15
"COc1ccc2c(c1OC)C(C)(C)N1CCc3cc4c(cc3C1=C2)OCO4 [Example 27, 9,10-Dimethoxy-8,8-dimethyl-5,8-dihydro-6H-[1,3]dioxolo[4,5-g]isoquino[3,2-a]isoquinoline]",1.62,1.65
"COc1ccc2c(c1OC)C(C)(C)N1CCc3cc4c(cc3C1C2Cc1ccccc1)OCO4 (centres unmarked) [Example 25, 13-Benzyl-9,10-dimethoxy-8,8-dimethyl-5,8,13,13a-tetrahydro-6H-[1,3]dioxolo[4,5-g]isoquino[3,2-a]isoquinoline]",1.13,1.02
"CC#CC1c2c(ccc(OC)c2OC)C=C2c3cc4c(cc3CCN21)OCO4 (centres unmarked) [Example 7, 9,10-Dimethoxy-8-prop-1-ynyl-5,8-dihydro-6H-[1,3]dioxolo[4,5-g]isoquino[3,2-a]isoquinoline]",1.58,1.68
"CCC1(CC)c2c(ccc(OC)c2OC)C(C)C2c3cc4c(cc3CCN21)OCO4 (centres unmarked) [Example 23, 8,8-Diethyl-9,10-dimethoxy-13-methyl-5,8,13,13a-tetrahydro-6H-[1,3]dioxolo[4,5-g]isoquino[3,2-a]isoquinoline]",1.1,1.14
"COc1ccc2c(c1OC)C(C)(C)N1CCc3cc4c(cc3C1C2C)OCO4 (centres unmarked) [Example 22, 9,10-Dimethoxy-8,8,13-trimethyl-5,8,13,13a-tetrahydro-6H-[1,3]dioxolo[4,5-g]isoquino[3,2-a]isoquinoline]",1.38,1.46
"COc1ccc2c(c1OC)C(C)(C)N1CCc3cc4c(cc3C1C2Cc1ccccn1)OCO4 (centres unmarked) [Example 24, 9,10-Dimethoxy-8,8-dimethyl-13-pyridin-2-ylmethyl-5,8,13,13a-tetrahydro-6H-[1,3]dioxolo[4,5-g]isoquino[3,2-a]isoquinoline]",1.11,1.03
"COc1ccc2c(c1OC)C(C)(C)N1CCc3cc4c(cc3C1C2)OCO4 (centres unmarked) [Example 21, 9,10-Dimethoxy-8,8-dimethyl-5,8,13,13a-tetrahydro-6H-[1,3]dioxolo[4,5-g]isoquino[3,2-a]isoquinoline]",1.22,1.14
"COc1ccc2c(c1OC)C(c1ccccc1)N1CCc3cc4c(cc3C1=C2)OCO4 (centres unmarked) [Example 1, 9,10-Dimethoxy-8-phenyl-5,8-dihydro-6H-[1,3]dioxolo[4,5-g]isoquino[3,2-a]isoquinoline]",1.32,1.3
"COc1ccc2c(c1OC)C1(CCCC1)N1CCc3cc4c(cc3C1C2)OCO4 (centres unmarked) [Example 2, 9′,10′-Dimethoxy-5′,6′,13′,13a′-tetrahydrospiro[cyclopentane-1,8′-[1,3]dioxolo[4,5-g]isoquino[3,2-a]isoquinoline]]",1.11,1.07
"C=CCC1(CC=C)c2c(ccc(OC)c2OC)C=C2c3cc4c(cc3CCN21)OCO4 [Example 17, 8,8-Diallyl-9,10-dimethoxy-5,8-dihydro-6H-[1,3]dioxolo[4,5-g]isoquino[3,2-a]isoquinoline]",1.34,1.04
"C=CC1c2c(ccc(OC)c2OC)C=C2c3cc4c(cc3CCN21)OCO4 (centres unmarked) [Example 3, 9,10-Dimethoxy-8-vinyl-5,8-dihydro-6H-[1,3]dioxolo[4,5-g]isoquino[3,2-a]isoquinoline]",1.16,1.11
"C=C(C)C1c2c(ccc(OC)c2OC)C=C2c3cc4c(cc3CCN21)OCO4 (centres unmarked) [Example 4, 8-Isopropenyl-9,10-dimethoxy-5,8-dihydro-6H-[1,3]dioxolo[4,5-g]isoquino[3,2-a]isoquinoline]",1.86,1.46
"C=C(C)C1c2c(ccc(OC)c2OC)C(C)=C2c3cc4c(cc3CCN21)OCO4 (centres unmarked) [Example 8, 8-Isopropenyl-9,10-dimethoxy-13-methyl-5,8-dihydro-6H-[1,3]dioxolo[4,5-g]isoquino[3,2-a]isoquinoline]",1.2,1.35
"COc1ccc2c(c1OC)C(C)(C)N1CCc3cc4c(cc3C1=C2C)OCO4 [Example 14, 9,10-Dimethoxy-8,8,13-trimethyl-5,8-dihydro-6H-[1,3]dioxolo[4,5-g]isoquino[3,2-a]isoquinoline]",1.21,1.18
"CC#CC1c2c(ccc(OC)c2OC)C(CC)=C2c3cc4c(cc3CCN21)OCO4 (centres unmarked) [Example 12, 13-Ethyl-9,10-dimethoxy-8-prop-1-ynyl-5,8-dihydro-6H-[1,3]dioxolo[4,5-g]isoquino[3,2-a]isoquinoline]",1.59,1.22
"C=C(C)C1c2c(ccc(OC)c2OC)C(CC)=C2c3cc4c(cc3CCN21)OCO4 (centres unmarked) [Example 10, 13-Ethyl-8-isopropenyl-9,10-dimethoxy-5,8-dihydro-6H-[1,3]dioxolo[4,5-g]isoquino[3,2-a]isoquinoline]",1.05,1.22
"C=CCC1=C2c3cc4c(cc3CCN2C(C(=C)C)c2c1ccc(OC)c2OC)OCO4 (centres unmarked) [Example 13, 13-Allyl-8-isopropenyl-9,10-dimethoxy-5,8-dihydro-6H-[1,3]dioxolo[4,5-g]isoquino[3,2-a]isoquinoline]",0.94,1.05
